Reference: patent publication US20250353847A1, “CRYSTALLINE FORMS OF AN AKRIC3 DEPENDENT KARS INHIBITOR” (Novartis AG, priority 2022, published 2025)
Blank lines part the entries; values can stand above or below the compound they belong to.

Tests used:
Assay type in all cases: physicochemical
[1] = Competitive slurry experiments and equilibration studies in solvents; conditions: for Outcome of competitive slurry experiment with Form A: 25° C.
[2] = Solid form transformation / decomposition upon heating
Procedure: DSC thermograms were recorded with a TA Discovery DSC instrument using heat flux compensation (TA Instruments, USA). The TA Discovery instrument was calibrated for temperature and enthalpy according to the manufacturer's instructions using certified reference substances like indium. About 2 mg of sample material was sealed in a standard pin-holed aluminum pan and heated in the DSC from 0° C. to 300° C., at a heating rate of 10° C./min. Dry nitrogen gas, at a flow rate of 50 ml/min was used to purge the DSC equipment during the measurement.
Thermogravimetric analysis was performed using a TA Discovery TGA instrument (TA Instruments, USA). About 2-10 mg of sample material was sealed in a standard aluminum pan with pierced lid and heated in the TGA from 30° C. to 250° C., at a heating rate of 10° C./min. Dry N2 gas, at a flow rate of 20 ml/min was used to purge the TGA equipment during the measurement.

[3] = Stability in 0.1% solutions or suspensions, 1 week 80° C. (pH stability study); parameters: key to CL color: A: No change of color; B: Slight discoloration; C: Medium discoloration; D: Strong discoloration; —: Test not performed; key to Suspension or clear solution after stress test: ↓: Suspension; *: Clear solution after stress test; conditions: for Suspension or clear solution after stress test: 0.1%
Procedure: In a pH stability study, 0.1% suspension/solutions of the compound of Formula (I) in buffer solutions of various pHs were exposed to 80° C. for one week. The compound of Formula (I) degraded the most in pH 1 buffer, about 5%, whereas at high pH degradation was less than 1% after 1 week at 80° C.

[4] = Solid state bulk stability, 1 week 80° C. tight container and 80° C./75% RH; conditions: for Bulk (XRPD) solid form after stress / DP[%] degradation products, Bulk (HPLC): Solid state
[5] = Stability 1% in excipient mixtures, 2 weeks 50° C.
Description: (§1) Both solid forms of the Compound of Formula (I) are also stable in mixtures with excipients.

[6] = Xenon light stress (1200 kLuxh); parameters: key to CL color: A: No change of color; B: Slight discoloration; C: Medium discoloration; D: Strong discoloration; —: Test not performed; conditions: for Bulk (XRPD) solid form after stress / CL color / DP[%] degradation products, Bulk (HPLC): Xenon light (1200 kLuxh); for CL color: bulk
Description: as §1

[7] = Hygroscopicity / water uptake
Procedure: The maximum water uptake of Form A is 0.6% at 95% relative humidity at 25° C. Form A is stable at water activity of aw=0.7 at 25° C.
Form A is an anhydrous crystalline form with a melting onset of about 208° C. and melting enthalpy of about 111-119 J/g.

[8] = Slurry experiments of Form A and Hydrate HA in media with different water activities
Procedure: Form A is stable at water activities of aw=0.7 and below, whereas the hydrate is stable at aw=0.9 and above. At 40° C. Form A is stable at water activities of aw=0.8 and below, whereas the hydrate is stable at aw>0.95.

[9] = Stability in 0.1% solutions or suspensions, 1 week 80° C. (pH stability study); parameters: key to CL color: A: No change of color; B: Slight discoloration; C: Medium discoloration; D: Strong discoloration; —: Test not performed; key to Suspension or clear solution after stress test: ↓: Suspension; *: Clear solution after stress test; conditions: for CL color / DP[%] degradation products (HPLC area-%): 0.1% solution or suspension; for CL color / DP[%] degradation products (HPLC area-%) / Suspension or clear solution after stress test: 1 week 80° C.; for Suspension or clear solution after stress test: 0.1%
Humidity controlled XRPD = test: Humidity controlled XRPD
[10] = 80° C. and 80° C. and 75% RH for one week
[11] = 1 week 80° C., tight container, listed as Modification A (NX-27)
[12] = listed as Modification A (NX-27)

Outcome of competitive slurry experiment with Form A [1]: will convert into Form A | Temperature of transformation into Form A upon heating ([2]; heating): above 190 °C
SMILES: O=C1CC2(CCN(C(=O)NCc3ccc(F)cc3)CC2)Nc2ccc(F)cc21 [Form D, 6′-fluoro-N-(4-fluorobenzyl)-4′-oxo-3′,4′-dihydro-1′H-spiro[piperidine-4,2′-quinoline]-1-carboxamide]

Outcome of competitive slurry experiment with Form A [1]: conversion of Form C into Form A | Transition temperature Form C / Form A (enantiotropic relationship) ([1]; based on competitive slurry experiments): below 25 °C | Temperature of transformation into Form A upon heating ([2]; heating): about 150 °C
SMILES: O=C1CC2(CCN(C(=O)NCc3ccc(F)cc3)CC2)Nc2ccc(F)cc21 [Form C, 6′-fluoro-N-(4-fluorobenzyl)-4′-oxo-3′,4′-dihydro-1′H-spiro[piperidine-4,2′-quinoline]-1-carboxamide]

DP[%] degradation products (HPLC area-%) ([3]; 0.1% solution or suspension, NMP): 14.3% | CL color ([3]; 0.1% solution or suspension, pH 4.7, acetate buffer): A | Suspension or clear solution after stress test ([3]; Water): ↓ | Suspension or clear solution after stress test ([3]; pH 1.0, 0.1N HCl): ↓ | Suspension or clear solution after stress test ([3]; pH 3.0, citrate buffer): ↓ | Suspension or clear solution after stress test ([3]; pH 6.8, phosphate buffer): ↓ | Suspension or clear solution after stress test ([3]; pH 9.0, borate buffer): ↓ | Chemical stability in the bulk [4, 10]: chemically stable | Bulk (XRPD) solid form after stress [4, 11]: No change | DP[%] degradation products, Bulk (HPLC) [4, 11]: 0.6% | DP[%] degradation products, Bulk (HPLC) ([4]; 1 week 80° C./75% RH): 0.7% | Bulk (XRPD) solid form after stress ([4]; 1 week 80° C./75% RH, listed as Modification A (NX-27)): No change | Physical stability in bulk ([4]; bulk): physically stable | DP[%] degradation products ([5]; 1% in mixture 1 (Dry Blend), 2 weeks 50° C., tight container, listed as Modification A (NX-27)): 0.4% | DP[%] degradation products ([5]; 1% in mixture 1 (Dry Blend), 2 weeks 50° C./75% RH, listed as Modification A (NX-27)): 0.4% | DP[%] degradation products ([5]; 1% in mixture 2 (Wet granulation), 2 weeks 50° C., tight container, listed as Modification A (NX-27)): 0.4% | DP[%] degradation products ([5]; 1% in mixture 2 (Wet granulation), 2 weeks 50° C./75% RH, listed as Modification A (NX-27)): 0.4% | DP[%] degradation products ([5]; 1% in mixture 3 (Roller compaction), 2 weeks 50° C., tight container, listed as Modification A (NX-27)): 0.4% | DP[%] degradation products ([5]; 1% in mixture 3 (Roller compaction), 2 weeks 50° C./75% RH, listed as Modification A (NX-27)): 0.4% | Bulk (XRPD) solid form after stress [6]: No change | CL color [6, 12]: B | DP[%] degradation products, Bulk (HPLC) [6, 12]: 1.2% | Increase in degradation products upon light stress ([6]; listed as Modification A): 0.6% | Hygroscopicity [7]: slightly hygroscopic | Maximum water uptake ([7]; 95% relative humidity at 25° C.): 0.6% | Water activity (aw) at which the form is stable ([8]; 40° C.): ≤ 0.8 | Crystal structure after slurrying (equilibration) for prolonged time ([1]; various solvents): preserves its crystal structure | Thermal decomposition temperature ([2]; TGA): 240 °C | CL color ([9]; Acetonitrile): A | DP[%] degradation products (HPLC area-%) ([9]; Acetonitrile): 1.2% | CL color ([9]; Dioxane): A | DP[%] degradation products (HPLC area-%) ([9]; Dioxane): 56.8% | CL color ([9]; Ethanol): A | DP[%] degradation products (HPLC area-%) ([9]; Ethanol): 16.6% | CL color ([9]; MEK): A | DP[%] degradation products (HPLC area-%) ([9]; MEK): 7.6% | CL color ([9]; NMP): A | CL color ([9]; Water): A | DP[%] degradation products (HPLC area-%) ([9]; Water): 1.2% | CL color ([9]; pH 1.0, 0.1N HCl): A | DP[%] degradation products (HPLC area-%) ([9]; pH 1.0, 0.1N HCl): 5.6% | CL color ([9]; pH 3.0, citrate buffer): A | DP[%] degradation products (HPLC area-%) ([9]; pH 3.0, citrate buffer): 1.5% | DP[%] degradation products (HPLC area-%) ([9]; pH 4.7, acetate buffer): 1.4% | CL color ([9]; pH 6.8, phosphate buffer): A | DP[%] degradation products (HPLC area-%) ([9]; pH 6.8, phosphate buffer): 1.2% | CL color ([9]; pH 9.0, borate buffer): A | DP[%] degradation products (HPLC area-%) ([9]; pH 9.0, borate buffer): 1.1% | Suspension or clear solution after stress test ([9]; Acetonitrile): * | Suspension or clear solution after stress test ([9]; Dioxane): * | Suspension or clear solution after stress test ([9]; Ethanol): * | Suspension or clear solution after stress test ([9]; MEK): * | Suspension or clear solution after stress test ([9]; NMP): * | Suspension or clear solution after stress test ([9]; pH 4.7, acetate buffer): ↓
SMILES: O=C1CC2(CCN(C(=O)NCc3ccc(F)cc3)CC2)Nc2ccc(F)cc21 [Form A, 6′-fluoro-N-(4-fluorobenzyl)-4′-oxo-3′,4′-dihydro-1′H-spiro[piperidine-4,2′-quinoline]-1-carboxamide]

Water activity (aw) at which the form is stable ([8]; 25° C.): ≥ 0.9 | Water activity (aw) at which the form is stable ([8]; 40° C.): > 0.95 | Form change after exposure to low humidity (Humidity controlled XRPD; about 12 hours at 5% RH): XRPD pattern changed to Form E | Stability of form in humidity controlled XRPD (Humidity controlled XRPD; relative humidity decreased from 40% RH to 5% RH at 25° C.): remains stable | Temperature of transformation into Form E ([2]; heating): about 70 °C
SMILES: O=C1CC2(CCN(C(=O)NCc3ccc(F)cc3)CC2)Nc2ccc(F)cc21 [Hydrate HA, 6′-fluoro-N-(4-fluorobenzyl)-4′-oxo-3′,4′-dihydro-1′H-spiro[piperidine-4,2′-quinoline]-1-carboxamide]

Degradation ([9]; 0.1% suspension/solution at high pH, 1 week at 80° C.): less than 1% | Degradation ([9]; 0.1% suspension/solution in pH 1 buffer, 80° C., one week): about 5%
SMILES: O=C1CC2(CCN(C(=O)NCc3ccc(F)cc3)CC2)Nc2ccc(F)cc21 [compound of Formula (I), 6′-fluoro-N-(4-fluorobenzyl)-4′-oxo-3′,4′-dihydro-1′H-spiro[piperidine-4,2′-quinoline]-1-carboxamide]

Chemical stability in the bulk [4, 10]: chemically stable | Bulk (XRPD) solid form after stress ([4]; 1 week 80° C., tight container): NX Mod A | DP[%] degradation products, Bulk (HPLC) ([4]; 1 week 80° C., tight container): 0.7% | Bulk (XRPD) solid form after stress ([4]; 1 week 80° C./75% RH): NX Mod A | DP[%] degradation products, Bulk (HPLC) ([4]; 1 week 80° C./75% RH): 0.7% | DP[%] degradation products ([5]; 1% in mixture 1 (Dry Blend), 2 weeks 50° C., tight container): 0.8% | DP[%] degradation products ([5]; 1% in mixture 1 (Dry Blend), 2 weeks 50° C./75% RH): 0.8% | DP[%] degradation products ([5]; 1% in mixture 2 (Wet granulation), 2 weeks 50° C., tight container): 0.8% | DP[%] degradation products ([5]; 1% in mixture 2 (Wet granulation), 2 weeks 50° C./75% RH): 0.8% | DP[%] degradation products ([5]; 1% in mixture 3 (Roller compaction), 2 weeks 50° C., tight container): 0.8% | DP[%] degradation products ([5]; 1% in mixture 3 (Roller compaction), 2 weeks 50° C./75% RH): 0.8% | Bulk (XRPD) solid form after stress [6]: No change | DP[%] degradation products, Bulk (HPLC) [6]: 0.7% | CL color [6]: A | Increase in degradation products upon light stress ([6]; listed as amorphous form): no degradation was observed
SMILES: O=C1CC2(CCN(C(=O)NCc3ccc(F)cc3)CC2)Nc2ccc(F)cc21 [amorphous, 6′-fluoro-N-(4-fluorobenzyl)-4′-oxo-3′,4′-dihydro-1′H-spiro[piperidine-4,2′-quinoline]-1-carboxamide]
Solid form change of bulk under stress [4, 10]: crystallized into the crystalline Modification A
